From patent publication US7342137B1, “Cyclohexenone compounds from Antrodia camphorata and application thereof” (Golden Biotechnology Corporation, priority 2007, dated 2008)

Columns and labels:
Type in all cases: cell-based
[1] = test system: human prostate cancer cells, LNCaP; test: In vitro survival assay (MTT), prostate cancer cells LNCaP; settings: 48 hours incubation
Description: (§1) The NCI anti-cancer drug screen model was also adopted to test the anti-cancer effect of the compound isolated from example 1 in the present invention. The isolated compound of 4-hydroxy-2,3-dimethoxy-6-methyl-5(3,7,11-trimethyl-dodeca-2,6,10-trienyl)-cyclohex-2-enone from example 1 was added into the culture media of human prostate cancer cells, LNCaP or DU-145, for tumor cell survival assay.
(§2) The human […] cells, LNCaP and DU-145, were separately cultivated in media containing fetal calf serum for 24 hours. The proliferated cells were washed once with PBS, then treated with 1× trypsin-EDTA and centrifuged at 1200 rpm for 5 minutes. The supernatant was discarded and the cell pellet was resuspended in 10 ml of fresh culture medium by gently shaking. The cells were placed in a 96-well plate. Ethanol extracts of Antrodia camphorata (the control group, total extracts of Antrodia camphorata without purification) or 4-hydroxy-2,3-dimethoxy-6-methyl-5(3,7,11-trimethyl-dodeca-2,6,10-trienyl)-cyclohex-2-enone (the experiment group) were added into each of the 96 wells at the following concentrations: 30, 10, 3, 1, 0.3, 0.1 and 0.03 μg/ml, respectively. The cells were incubated at 37° C. in a 5% CO2 incubator for 48 hours. […] The plates were read on an ELISA reader at wavelength of 570 nm to determine the survival rates.

[2] = test system: human hepatic cancer cells, Hep G2; test: In vitro Taxol add-on study (MTT), Hep G2; settings: Homo sapiens, HepG2, 0.0017 μg/ml Taxol + formula 2
Description: (§3) The experiment was also carried out according to NCI anti-cancer drug screen in vitro model. The human hepatic cancer cells, Hep 3B and Hep G2 […] were separately cultivated in media containing fetal calf serum for 24 hours. The proliferated cells were washed once with PBS, then treated with 1× trypsin-EDTA and centrifuged at 1200 rpm for 5 minutes. The supernatant was discarded and the cell pellet was resuspended in 10 ml of fresh culture medium by gently shaking. The Hep 3B cells were treated with 0.0043 μg/ml of Lovastatin for 72 hours and Hep G2 cells were treated with 0.0017 μg/ml of Taxol for 72 hours before placing in a 96-well plate. 4-hydroxy-2,3-dimethoxy-6-methyl-5(3,7,11-trimethyl-dodeca-2,6,10-trienyl)-cyclohex-2-enone obtained from example 1 were added respectively into each of the 96 wells at the following concentrations: 0 μg/ml (the control group); 30, 10, 3, 1, 0.3, 0.1 and 0.03 μg/ml (the experiment group). The cells were incubated at 37° C. in a 5% CO2 incubator for 48 hours. MTT was added in a concentration of 2.5 mg/ml into each well in dark and reacted for 4 hours, followed by the addition of 100 μl of lysis buffer to stop the reaction. The plates were read on an ELISA reader at wavelength of 570 nm to determine the survival rates.

[3] = test system: human hepatic-cancer cells, Hep G2; test: In vitro survival assay (MTT), hepatic cancer cells Hep G2; settings: HepG2, 48 hours incubation
Description: as §1, with “hepatic-cancer” for “prostate cancer”, “Hep 3B” for “LNCaP”, “Hep G2,” for “DU-145,”
as §2, with “cells, Hep 3B” for “cells, LNCaP”, “and Hep G2,” for “and DU-145,”, “purification) were added into each of the 96 wells at the following concentrations: 30, 10, 3, 1, 0.3, 0.1 and 0.03 μg/ml, respectively, while” for “purification) or”, “respectively.” for “respectively. The cells were incubated at 37° C. in a 5% CO2 incubator for 48 hours.”

[4] = test system: human breast-cancer cells, MCF-7; test: In vitro Taxol add-on study (MTT), MCF-7; settings: Homo sapiens, MCF7, 0.0017 μg/ml Taxol + formula 2
Description: as §3, with “breast-cancer” for “hepatic cancer”, “MCF-7” for “Hep 3B and Hep G2”, “The” for “The Hep 3B”, “placed” for “treated with 0.0043 μg/ml of Lovastatin for 72 hours and Hep G2 cells were treated with 0.0017 μg/ml of Taxol for 72 hours before placing”, “plate after 0.0017 μg/ml Taxol was added and treated for 72 hours.” for “plate.”, “terminate” for “stop”

For COC1=C(OC)C(O)C(C/C=C(\C)CC/C=C(\C)CCC=C(C)C)C(C)C1=O (stereo not shown) [formula 2, 4-hydroxy-2,3-dimethoxy-6-methyl-5(3,7,11-trimethyl-dodeca-2,6,10-trienyl)-cyclohex-2-enone], the IC50 [1] was 2.38 µg/mL, the IC50 [2] was 0.008 µg/mL and the IC50 [3] was 1.68 µg/mL. For the same molecule, the IC50 [4] was 0.009 µg/mL.
